Experimental data reported in patent EP2958945B1, “COMBINATION THERAPY INVOLVING ANTIBODIES AGAINST CLAUDIN 18.2 FOR TREATMENT OF CANCER” (Astellas Pharma Inc., priority 2013, dated 2014).

Tests used:
Format in all cases: cell-based, human
Kato III cells = assay: Cell cycle analysis and cell growth, Kato III; settings: Kato III; 5-FU 10 or 100 ng/ml, oxaliplatin 50 or 500 ng/ml; 96 hours
Method: Kato III cells, a human gastric tumor cell line, was cultivated in RPMI 1640 medium (Invitrogen) containing 20% FCS (Perbio) and 2 mM Glutamax (Invitrogen) at 37°C and 5% CO2, with or without cytostatic compounds. 5-FU (Neofluor from NeoCorp AG) was tested at a concentration of 10 or 100 ng/ml, and oxaliplatin (Hospira) was tested at a concentration of 50 or 500 ng/ml. […] Cells were harvested with EDTA/trypsin, washed and analysed.
Cell cycle stages were determined based on measurement of cellular DNA content. This allows one to discriminate between cells in the G1-, S- or G2-phase of the cell cycle. In the S-phase DNA duplication occurs whereas in the G2-phase cells grow and prepare for mitosis. Cell cycle analysis was done using the CycleTEST PLUS DNA Reagent Kit from BD Biosciences following the manufacturer's protocol. Flow cytometry acquisition and analysis were performed by using BD FACS CantoII (BD Biosciences) and FlowJo (Tree Star) software.
Kato III cells were pretreated for 4 days with Irinotecan or Docetaxel and analysed for CLDN18.2 expression and cell cycle arrest.

Capanl-LVT = assay: Inhibition of proliferation (XTT), Capanl-LVT; settings: exposed for 4 days
Method: (§1) To analyze dose-response curves of each chemotherapeutic agent, a proliferation assay was performed. Table 6: Pancreas cancer cell lines to analyze efficacy of gemcitabine or oxaliplatin
(§2) Cells were seeded in 96well plates and after 4-6 hours gemcitabine or oxaliplatin was added in following concentrations: 1000, 500, 250, 100 and 20 ng/ml. The proliferation assay was incubated for 4 days at 37°C and 5% CO2. 50 µl XTT complete reagent (50 parts XTT + 1 part coupl. reagent mixed) was added and incubated at 37°C. Measurement of absorbance (cells plus supernatant) was done with the Tecan Safire after 3 h and 4 h. Inhibition of proliferation was calculated compared to medium values set as 100%. EC50 values for gemcitabine and oxaliplatin were calculated in the GraphPad Prism program.

BxPC3-LVT = assay: Inhibition of proliferation (XTT), BxPC3-LVT; settings: exposed for 4 days
Method: as §1, §2

MiaPaCa-2-LVT = assay: Inhibition of proliferation (XTT), MiaPaCa-2-LVT; settings: exposed for 4 days
Method: as §1, §2

DANG = assay: Inhibition of proliferation (XTT), DANG; settings: exposed for 4 days
Method: as §1, §2

`O=C1[O][Pt]2([NH][C@@H]3CCCC[C@H]3[NH]2)[O]C1=O` [oxaliplatin, [(1R,2R)-cyclohexane-1,2-diamine](ethanedioato-O,O')platinum(II)] was tested, and the “cell cycle phase distribution” value (Kato III cells) was “enrichment of cells predominantly in the G1- and G2-phases”, the “IC50 Inhibition of Proliferation” value (Capanl-LVT) was about 0.1 µg/mL and the “IC50 Inhibition of Proliferation” value (BxPC3-LVT) was 0.5 to 1 µg/mL. The “IC50 Inhibition of Proliferation” value (MiaPaCa-2-LVT) was 0.05 to 0.1 µg/mL and the “IC50 Inhibition of Proliferation” value (DANG) was about 0.5 µg/mL.
